Experiment [1] addresses T1, recombinant human cIAP2-BIR3 protein (Homo sapiens, UniProt Q13489).
T1 construct: recombinant human cIAP2-BIR3 protein; purchased Reaction biology APT-11-372
Nature of the experiment: Recombinant human c-IAP2-BIR3 biochemical assay (HTRF, peptide displacement). To be noted: 3.7 nM cIAP2-BIR3, 3.7 nM AbuRPF-K(5-Fam)-NH2 peptide, read-out: Protein binding IC50 (nM) c-IAP2. The procedure:
II. Recombinant Human c-IAP2-BIR3 Biochemical Assay
(§1) Compounds disclosed herein were tested for blocking of recombinant human cIAP2-BIR3 protein (Cat: APT-11-372, Reaction biology) with its peptide in an assay based on Homogeneous Time Resolved Fluorescence. 3.7 nM recombinant human cIAP2-BIR3 protein was pre-incubated with a serial dilution of compounds disclosed herein (maximum concentration is 10 uM, 4-fold serially diluted, 10 points) at room temperature for 1 hour in an assay buffer containing 20 mM HEPES, pH 7.5, 50 mM NaCl, 0.005% Tween-20, 1 mM DTT. Then 3.7 nM AbuRPF-K(5-Fam)-NH2 (Cat: 709702, GL Biochem) was added to plate incubated at room temperature for 1 hour. Mab Anti-6His Tb cryptate Gold (Cat: 61HI2TLB, Cisbio Bioassays) was added to plate and further incubated at room temperature for 1 hour. The HTRF signals (ex337 nm, em520 nm/490 nm) were read on BMG PHERAstar FS instrument. The inhibition percentage of cIAP2-BIR3 interaction with its peptide in presence of increasing concentrations of compounds was calculated based on the ratio of fluorescence at 520 nm to that at 490 nm. The IC50 for each compound was derived from fitting the data to the four-parameter logistic equation by Dotmatics and summarized in table 1.
(Time-resolved FRET reads energy transfer from a long-lived donor to a nearby acceptor.)

The target of experiment [2] is T2, recombinant human XIAP-BIR3 protein (Homo sapiens, UniProt P98170).
T2 construct: recombinant human XIAP-BIR3 protein; purchased Reaction biology APT-11-374
In words: Recombinant human XIAP-BIR3 biochemical assay (HTRF, peptide displacement). To be noted: 3.7 nM XIAP-BIR3, 7.6 nM AbuRPF-K(5-Fam)-NH2 peptide, read-out: Protein binding IC50 (nM) XIAP. The procedure: III. Recombinant Human XIAP-BIR3 Biochemical Assay
as §1, with “human XIAP-BIR3” for “human cIAP2-BIR3”, “(Cat: APT-11-374,” for “(Cat: APT-11-372,”, “Then 7.6” for “Then 3.7”, “of XIAP-BIR3” for “of cIAP2-BIR3”

The target of experiment [3] is T3, recombinant human cIAP1-BIR3 protein (Homo sapiens, UniProt Q13490).
T3 construct: recombinant human cIAP1-BIR3 protein; purchased Reaction biology APT-11-370
In words: Recombinant human c-IAP1-BIR3 biochemical assay (HTRF, peptide displacement). To be noted: 1.2 nM cIAP1-BIR3, 3 nM AbuRPF-K(5-Fam)-NH2 peptide, read-out: Protein binding IC50 (nM) c-IAP1. The procedure: I. Recombinant human c-IAP1-BIR3 biochemical assay
as §1, with “human cIAP1-BIR3” for “human cIAP2-BIR3”, “(Cat: APT-11-370,” for “(Cat: APT-11-372,”, “Fluorescence. 1.2” for “Fluorescence. 3.7”, “Then 3” for “Then 3.7”, “nM AbuRPF-K (5-Fam)-NH2” for “nM AbuRPF-K(5-Fam)-NH2”, “of cIAP1-BIR3” for “of cIAP2-BIR3”

What is called IC50 is the concentration that gives 50% inhibition.

T2 sequence (P98170 241-356 limits assumed): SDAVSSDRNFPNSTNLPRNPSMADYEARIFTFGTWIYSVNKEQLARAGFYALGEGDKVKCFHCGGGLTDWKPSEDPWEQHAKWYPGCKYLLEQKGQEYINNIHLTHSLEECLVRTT
T1 sequence (Q13489 238-349 limits assumed): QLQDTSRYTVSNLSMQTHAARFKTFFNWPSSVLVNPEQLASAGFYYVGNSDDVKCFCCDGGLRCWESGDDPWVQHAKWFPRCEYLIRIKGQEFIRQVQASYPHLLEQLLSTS
T3 sequence (Q13490 253-363 limits assumed): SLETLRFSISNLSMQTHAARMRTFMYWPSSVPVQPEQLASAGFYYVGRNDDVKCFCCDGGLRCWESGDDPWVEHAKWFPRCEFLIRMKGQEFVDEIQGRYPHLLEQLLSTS

With `CCOc1nc2c(cc1Cc1ccc(F)cc1)N(C(=O)CN1C[C@@H](C)NC[C@@H]1CN1CCOC[C@H]1C)CCO2` [Compound 17, 1-(6-ethoxy-7-(4-fluorobenzyl)-2,3-dihydro-1H-pyrido[2,3-b][1,4]oxazin-1-yl)-2-((2R,5R)-5-methyl-2-(((R)-3-methylmorpholino)methyl)piperazin-1-yl)ethan-1-one], the 50% inhibitory concentration (IC50) in experiment [1] worked out at 1.3 nM; in experiment [2], 5.4 nM; in experiment [3], 0.53 nM.
On to `C[C@@H]1CN(CC(=O)N2c3cc(Cc4ccc(F)cc4)c(C(=O)N4CCN(C)CC4)nc3OC[C@@H]2C)[C@@H](CN2[C@H](C)COC[C@H]2C)CN1` [Compound 104], for which the IC50 in experiment [1] stood at 0.83 nM; in experiment [2], 18.1 nM; in experiment [3], 0.26 nM.
In the same order, the values of `C[C@@H]1CN(CC(=O)N2c3cc(Cc4ccc(F)cc4)c(C(N)=O)nc3OC[C@@H]2C)[C@@H](CN2[C@H](C)COC[C@H]2C)CN1` [Compound 32, (S)-1-(2-((2R,5R)-2-(((3R,5R)-3,5-dimethylmorpholino)methyl)-5-methylpiperazin-1-yl)acetyl)-7-(4-fluorobenzyl)-2-methyl-2,3-dihydro-1H-pyrido[2,3-b][1,4]oxazine-6-carboxamide] are 0.36 nM, 5.8 nM and 0.25 nM.
In the case of `C[C@@H]1CN(CC(=O)N2c3cc(Cc4ccc(F)cc4)c(CO)nc3OC[C@@H]2C)[C@@H](CN2CCOC[C@@H]2C2CC2)CN1` [Example 84B], the IC50 in experiment [1] was determined as 1.6 nM; in experiment [2], 46 nM; in experiment [3], 0.78 nM.
For the molecule `CC1COc2ncc(Cc3ccc(F)cc3)cc2N1C(=O)CN1C[C@@H](C)NC[C@@H]1CN1CCOC[C@H]1C` (stereo partly drawn) [Compound 19, 1-(7-(4-fluorobenzyl)-2-methyl-2,3-dihydro-1H-pyrido[2,3-b][1,4]oxazin-1-yl)-2-((2R,5R)-5-methyl-2-(((R)-3-methylmorpholino)methyl)piperazin-1-yl)ethan-1-one], the IC50 is 1.2 nM in experiment [1], 7.7 nM in experiment [2] and 0.82 nM in experiment [3].
In the same order, the values of `CC[C@H]1COc2ncc(Cc3ccc(F)cc3)cc2N1C(=O)CN1C[C@@H](C)NC[C@@H]1CN1CCOC[C@H]1C` [Compound 28, 1-((S)-2-ethyl-7-(4-fluorobenzyl)-2,3-dihydro-1H-pyrido[2,3-b][1,4]oxazin-1-yl)-2-((2R,5R)-5-methyl-2-(((R)-3-methylmorpholino)methyl)piperazin-1-yl)ethan-1-one] are 0.62 nM, 14 nM and 0.26 nM.
`C[C@@H]1CN(CC(=O)N2c3cc(Cc4ccc(F)cc4)c(C(N)=O)nc3OC[C@@H]2C)[C@@H](CN2CCOC[C@H]2C(F)F)CN1` [Example 82]: the IC50 worked out at 0.73 nM in experiment [1], 10 nM in experiment [2] and 0.54 nM in experiment [3].
In the case of `C[C@@H]1CN(CC(=O)N2c3cc(Cc4ccc(F)cc4)c(OCCO)nc3OC[C@@H]2C)[C@@H](CN2[C@H](C)COC[C@H]2C)CN1` [Compound 107], the results for the IC50 in experiment [1], in experiment [2] and in experiment [3] were 0.41 nM, 4.4 nM and 0.23 nM, respectively.
Regarding `C[C@@H]1CN(CC(=O)N2c3cc(Cc4ccc(F)cc4)cnc3OC[C@@H]2COc2ccccc2)[C@@H](CN2CCOC[C@H]2C)CN1` [Compound 41], the IC50 was found to be 0.24 nM in experiment [1], 12 nM in experiment [2] and 0.11 nM in experiment [3].
The corresponding values for `CC[C@@H]1COCCN1C[C@H]1CN[C@H](C)CN1CC(=O)N1c2cc(Cc3ccc(F)cc3)c(CO)nc2OC[C@@H]1C` [Compound 51, 2-((2R,5R)-2-(((R)-3-ethylmorpholino)methyl)-5-methylpiperazin-1-yl)-1-((S)-7-(4-fluorobenzyl)-6-(hydroxymethyl)-2-methyl-2,3-dihydro-1H-pyrido[2,3-b][1,4]oxazin-1-yl)ethan-1-one] are 0.67 nM, 9.2 nM and 0.3 nM.

The values above are taken from patent publication US12583866B2, “Pyrido[2,3-b][1,4]oxazines or tetrahydropyrido[2,3-b][1,4]oxazepines as IAP antagonists” (BEIGENE, LTD., priority 2020, dated 2026).
